Earlier results, collected in US11925179B2, “Glyphosate formulations containing amidoalkylamine surfactants” (Monsanto Technology LLC, priority 2008, dated 2024).

Conditions: glyphosate in its acid form, 25° C.

O=C(O)CNCP(=O)(O)O [glyphosate, N-phosphonomethylglycine]
solubility in water: 1.16 % by weight
